Measurements: ChEMBL document CHEMBL5543142, “Discovery of YFJ-36: Design, Synthesis, and Antibacterial Activities of Catechol-Conjugated β-Lactams against Gram-Negative Bacteria” (J Med Chem, 2024)

Assays:
[1] = test system: Acinetobacter baumannii; test: Antibacterial activity against OXA-23 producing multidrug-resistant Acinetobacter baumannii clinical isolate 15-3 assessed as inhibition of bacterial growth incubated for 18 to 20 hrs by two fold serial dilution assay; format: functional; conditions: time 18-20 hrs
[2] = test system: Pseudomonas aeruginosa; test: Antibacterial activity against IMP-4 producing multidrug-resistant Pseudomonas aeruginosa clinical isolate 17-13 assessed as inhibition of bacterial growth incubated for 18 to 20 hrs by two fold serial dilution assay; format: functional; conditions: time 18-20 hrs
[3] = test system: Klebsiella pneumoniae; test: Antibacterial activity against KPC-2 producing multidrug-resistant Klebsiella pneumoniae clinical isolate 15-1 assessed as inhibition of bacterial growth incubated for 18 to 20 hrs by two fold serial dilution assay; format: functional; conditions: time 18-20 hrs
[4] = test system: Escherichia coli; test: Antibacterial activity against ESBL-producing multidrug-resistant Escherichia coli clinical isolate 14-4 assessed as inhibition of bacterial growth incubated for 18 to 20 hrs by two fold serial dilution assay; format: functional; conditions: time 18-20 hrs
[5] = test system: Klebsiella pneumoniae; test: Antibacterial activity against KPC-2 producing multidrug-resistant Klebsiella pneumoniae clinical isolate 15-3 assessed as inhibition of bacterial growth incubated for 18 to 20 hrs by two fold serial dilution assay; format: functional; conditions: time 18-20 hrs
[6] = test system: Pseudomonas aeruginosa; test: Antibacterial activity against IMP-4 producing multidrug-resistant Pseudomonas aeruginosa clinical isolate 19-17 assessed as inhibition of bacterial growth incubated for 18 to 20 hrs by two fold serial dilution assay; format: functional; conditions: time 18-20 hrs
[7] = test system: Escherichia coli; test: Antibacterial activity against ESBL-producing multidrug-resistant Escherichia coli clinical isolate 14-1 assessed as inhibition of bacterial growth incubated for 18 to 20 hrs by two fold serial dilution assay; format: functional; conditions: time 18-20 hrs
[8] = test system: Acinetobacter baumannii; test: Antibacterial activity against OXA-23 producing multidrug-resistant Acinetobacter baumannii clinical isolate 15-1 assessed as inhibition of bacterial growth incubated for 18 to 20 hrs by two fold serial dilution assay; format: functional; conditions: time 18-20 hrs
[9] = Clearance in ICR mouse at 20 mg/kg,iv administration measured upto 6 hrs by LC-MS/MS analysis; format: ADME, organism-based; conditions: in vivo
[10] = test system: Klebsiella pneumoniae; test: Antibacterial activity against KPC-2 producing multidrug-resistant Klebsiella pneumoniae clinical isolate 15-2 assessed as inhibition of bacterial growth incubated for 18 to 20 hrs by two fold serial dilution assay; format: functional; conditions: time 18-20 hrs
[11] = test system: Acinetobacter baumannii; test: Antibacterial activity against OXA-23 producing multidrug-resistant Acinetobacter baumannii clinical isolate 15-5 assessed as inhibition of bacterial growth incubated for 18 to 20 hrs by two fold serial dilution assay; format: functional; conditions: time 18-20 hrs
[12] = test system: Acinetobacter baumannii; test: Antibacterial activity against OXA-23 producing multidrug-resistant Acinetobacter baumannii clinical isolate 15-2 assessed as inhibition of bacterial growth incubated for 18 to 20 hrs by two fold serial dilution assay; format: functional; conditions: time 18-20 hrs
[13] = test system: Pseudomonas aeruginosa; test: Antibacterial activity against IMP-4 producing multidrug-resistant Pseudomonas aeruginosa clinical isolate 17-1 assessed as inhibition of bacterial growth incubated for 18 to 20 hrs by two fold serial dilution assay; format: functional; conditions: time 18-20 hrs
[14] = Volume of distribution at steady state in ICR mouse at 20 mg/kg,iv administration measured upto 6 hrs by LC-MS/MS analysis; format: ADME, organism-based; conditions: in vivo, read-out: Vdss
[15] = Half life in ICR mouse at 20 mg/kg,iv administration measured upto 6 hrs by LC-MS/MS analysis; format: ADME, organism-based; conditions: in vivo
[16] = AUC (0 to infinity) in ICR mouse at 20 mg/kg,iv administration measured upto 6 hrs by LC-MS/MS analysis; format: ADME, organism-based; conditions: in vivo
[17] = test system: Acinetobacter baumannii; test: Antibacterial activity against OXA-23 producing multidrug-resistant Acinetobacter baumannii clinical isolate 15-4 assessed as inhibition of bacterial growth incubated for 18 to 20 hrs by two fold serial dilution assay; format: functional; conditions: time 18-20 hrs
[18] = MRT in ICR mouse at 20 mg/kg,iv administration measured upto 6 hrs by LC-MS/MS analysis; format: ADME, organism-based; conditions: in vivo
[19] = test system: Escherichia coli; test: Antibacterial activity against Escherichia coli ATCC35218 assessed as inhibition of bacterial growth incubated for 18 to 20 hrs by two fold serial dilution assay; format: functional; conditions: time 18-20 hrs
[20] = test system: Escherichia coli; test: Antibacterial activity against ESBL-producing multidrug-resistant Escherichia coli clinical isolate 14-2 assessed as inhibition of bacterial growth incubated for 18 to 20 hrs by two fold serial dilution assay; format: functional; conditions: time 18-20 hrs
[21] = test system: Klebsiella pneumoniae; test: Antibacterial activity against KPC-2 producing multidrug-resistant Klebsiella pneumoniae clinical isolate 15-5 assessed as inhibition of bacterial growth incubated for 18 to 20 hrs by two fold serial dilution assay; format: functional; conditions: time 18-20 hrs
[22] = Plasma protein binding in mouse incubated for 35 mins by LC-MS/MS analysis; format: ADME, cell-free; conditions: read-out: PPB (converted)
[23] = test system: Acinetobacter baumannii; test: Antibacterial activity against OXA-23 producing multidrug-resistant Acinetobacter baumannii clinical isolate 17-2 assessed as inhibition of bacterial growth incubated for 18 to 20 hrs by two fold serial dilution assay; format: functional; conditions: time 18-20 hrs
[24] = test system: Pseudomonas aeruginosa; test: Antibacterial activity against IMP-4 producing multidrug-resistant Pseudomonas aeruginosa clinical isolate 19-5 assessed as inhibition of bacterial growth incubated for 18 to 20 hrs by two fold serial dilution assay; format: functional; conditions: time 18-20 hrs
[25] = test system: Acinetobacter baumannii; test: Antibacterial activity against OXA-23 producing multidrug-resistant Acinetobacter baumannii clinical isolate 17-8 assessed as inhibition of bacterial growth incubated for 18 to 20 hrs by two fold serial dilution assay; format: functional; conditions: time 18-20 hrs
[26] = test system: Acinetobacter baumannii; test: Antibacterial activity against OXA-23 producing multidrug-resistant Acinetobacter baumannii clinical isolate 17-5 assessed as inhibition of bacterial growth incubated for 18 to 20 hrs by two fold serial dilution assay; format: functional; conditions: time 18-20 hrs
[27] = test system: Acinetobacter baumannii; test: Antibacterial activity against OXA-23 producing multidrug-resistant Acinetobacter baumannii clinical isolate 17-3 assessed as inhibition of bacterial growth incubated for 18 to 20 hrs by two fold serial dilution assay; format: functional; conditions: time 18-20 hrs
[28] = test system: Acinetobacter baumannii; test: Antibacterial activity against OXA-23 producing multidrug-resistant Acinetobacter baumannii clinical isolate 17-6 assessed as inhibition of bacterial growth incubated for 18 to 20 hrs by two fold serial dilution assay; format: functional; conditions: time 18-20 hrs
[29] = test system: Pseudomonas aeruginosa; test: Antibacterial activity against IMP-4 producing multidrug-resistant Pseudomonas aeruginosa clinical isolate 19-1 assessed as inhibition of bacterial growth incubated for 18 to 20 hrs by two fold serial dilution assay; format: functional; conditions: time 18-20 hrs
[30] = test system: Acinetobacter baumannii; test: Antibacterial activity against OXA-23 producing multidrug-resistant Acinetobacter baumannii clinical isolate 17-7 assessed as inhibition of bacterial growth incubated for 18 to 20 hrs by two fold serial dilution assay; format: functional; conditions: time 18-20 hrs

Row | Structure (SMILES) | MIC [1] | MIC [2] | MIC [3] | MIC [4] | MIC [5] | MIC [6] | MIC [7] | MIC [8] | MIC [10] | MIC [11] | MIC [12] | MIC [13] | MIC [17] | MIC [19] | MIC [20] | MIC [21] | MIC [23] | MIC [24] | MIC [25] | MIC [26] | also measured
1 | CC(C)(C)C1CCC(C(O/N=C(\C(=O)N[C@@H]2C(=O)N3C(C(=O)O)=C(CSCCNC(=O)c4ccc(O)c(O)c4Cl)CS[C@H]23)c2csc(N)n2)C(=O)O)CC1.O=C(O)C(F)(F)F (stereo partly specified) | 8 µg/mL | 4 µg/mL | 1 µg/mL | 0.25 µg/mL | 2 µg/mL | 0.5 µg/mL | 0.125 µg/mL | 8 µg/mL | 1 µg/mL | 8 µg/mL | 8 µg/mL | 4 µg/mL | 8 µg/mL | 0.06 µg/mL | 0.5 µg/mL | 1 µg/mL | – | – | – | – | clearance [9]: 58 mL/min/kg; Vd [14]: 7.23 L/kg; half-life [15]: 4.99 h; AUC(0-inf) [16]: 6670 ng·h/mL; MRT [18]: 1.72 h
2 | Nc1nc(/C(=N/OC(C(=O)O)C2CCC(C(F)(F)F)CC2)C(=O)N[C@@H]2C(=O)N3C(C(=O)O)=C(CSCCNC(=O)c4ccc(O)c(O)c4Cl)CS[C@H]23)cs1.O=C(O)C(F)(F)F (stereo partly specified) | 4 µg/mL | 0.125 µg/mL | 1 µg/mL | 0.25 µg/mL | 1 µg/mL | 0.5 µg/mL | 0.25 µg/mL | 4 µg/mL | 1 µg/mL | 2 µg/mL | 2 µg/mL | 1 µg/mL | 8 µg/mL | 0.06 µg/mL | 1 µg/mL | 1 µg/mL | – | – | – | – | fraction unbound at 35 min [22]: 0.04
3 | C[C@](O/N=C(\C(=O)N[C@@H]1C(=O)N2C(C(=O)O)=C(CSCCNC(=O)c3ccc(O)c(O)c3Cl)CS[C@H]12)c1nc(N)sc1Cl)(C(=O)O)C(F)(F)F.O=C(O)C(F)(F)F | – | 0.125 µg/mL | 0.25 µg/mL | ≤ 0.03 µg/mL | 0.5 µg/mL | 0.06 µg/mL | 0.06 µg/mL | – | 0.5 µg/mL | – | – | 8 µg/mL | – | 0.125 µg/mL | 0.5 µg/mL | 0.125 µg/mL | 0.06 µg/mL | 0.25 µg/mL | 0.125 µg/mL | 0.125 µg/mL | MIC [27]: 0.5 µg/mL; MIC [28]: 0.5 µg/mL; MIC [29]: 1 µg/mL; MIC [30]: 0.5 µg/mL
4 | CC(C)[C@@H](O/N=C(\C(=O)N[C@@H]1C(=O)N2C(C(=O)O)=C(CSCCNC(=O)c3ccc(O)c(O)c3Cl)CS[C@H]12)c1csc(N)n1)C(=O)O.O=C(O)C(F)(F)F | – | 0.06 µg/mL | 0.25 µg/mL | 0.125 µg/mL | 2 µg/mL | 0.25 µg/mL | 0.125 µg/mL | – | 0.25 µg/mL | – | – | 32 µg/mL | – | 0.5 µg/mL | 1 µg/mL | 0.25 µg/mL | 1 µg/mL | 2 µg/mL | 1 µg/mL | 2 µg/mL | MIC [27]: 0.5 µg/mL; MIC [28]: 2 µg/mL; MIC [29]: 2 µg/mL; MIC [30]: 4 µg/mL
